From publication PMC8580996, “2-Oxoglutarate derivatives can selectively enhance or inhibit the activity of human oxygenases” (Nature Communications, 2021)
“Also recorded” adds a separate entry of the source.

What was measured:
FIH [1] = biological target: T1, FIH (Homo sapiens, UniProt Q9NWT6); experiment: SPE-MS FIH inhibition assay; type: biochemical; conditions: for FIH IC50, independent replicate: source data of Table 3, single independent replicates; for IC50 FIH: 5.0 μM HIF-1α788-822, 10 μM 2OG, mean of two runs; for IC50 FIH: 0.15 µM FIH
Method: FIH inhibition assays were performed as described, using cosubstrate/cofactor stock solutions (L-ascorbic acid, LAA: 50 mM in MQ-grade water; 2-oxoglutarate, 2OG: 10 mM in MQ-grade water; ammonium iron(II) sulfate hexahydrate, FAS, (NH4)2Fe(SO4)2·6H2O: 400 mM in 20 mM HCl diluted to 1 mM in MQ-grade water), which were freshly prepared from commercially-sourced solids (Sigma Aldrich).
Dimethyl sulfoxide (DMSO) solutions of the 2OG derivatives were dry dispensed across 384-well polypropylene assay plates (Greiner) in an approximately threefold and 11-point dilution series (100 μM top concentration; the final DMSO assay concentration was kept constant at 0.5%v/v) using an ECHO 550 acoustic dispenser (Labcyte). […] Each reaction was performed in technical duplicates in adjacent wells of the assay plates; additionally, assays were performed in two independent duplicates on different days using different inhibitor solutions.
The Enzyme Mixture (25 μL/well), containing 0.3 μM His6-FIH in buffer (50 mM Tris, 50 mM NaCl, pH 7.5), was dispensed across the inhibitor-containing 384-well assay plates with a multidrop dispenser (ThermoFischer Scientific) at 20 °C under an ambient atmosphere. The plates were subsequently centrifuged (1000 rpm, 15 s) and incubated for 15 min at 20 °C. The Substrate Mixture (25 μL/well), containing 10.0 μM HIF-1α788–822[37] substrate, 200 μM LAA, 20.0 μM 2OG, and 20.0 μM FAS in buffer (50 mM Tris, 50 mM NaCl, pH 7.5), was added using the multidrop dispenser. The plates were centrifuged (1000 rpm, 15 s) and after incubating for 15 min, the enzyme reaction was stopped by the addition of 10%v/v aqueous formic acid (5 μL/well). The plates were then centrifuged (1000 rpm, 30 s) and analyzed by MS.
(§1) MS-analyses were performed using a RapidFire RF 365 high-throughput sampling robot (Agilent) attached to an iFunnel Agilent 6550 accurate-mass quadrupole time-of-flight mass spectrometer operated in the positive ionization mode. Assay samples were aspirated under vacuum for 0.6 s and loaded onto a C4 SPE cartridge. After loading, the C4 SPE cartridge was washed with 0.1%v/v aqueous formic acid to remove non-volatile buffer salts (5.5 s, 1.5 mL/min). […] The mass spectrometer was operated using the MassHunter Workstation B.08.00 software (Agilent), the mass spectrometer parameters were: capillary voltage (4000 V), nozzle voltage (1000 V), fragmentor voltage (365 V), gas temperature (280 °C), gas flow (13 L/min), sheath gas temperature (350 °C), sheath gas flow (12 L/min). The m/z + 2 (for CA1–20) or +3 (for HIF-1α788–822) charge states of the peptide (substrate) and the hydroxylated peptide (product) were used to extract ion chromatogram data, peak areas were integrated using RapidFire Integrator 4.3.0 (Agilent). Data were exported into Microsoft Excel and used to calculate the % conversion of the hydroxylation reaction using the equation: % conversion = 100 × (integral product peptide)/(integral substrate peptide+integral product peptide). […] Z′-factors were calculated according to the cited literature using Microsoft Excel (Supplementary Fig. 26)[83].
SPE-MS FIH inhibition assays were performed as described in the Methods section.
Tris, 50 mM NaCl, pH 7.5, 20 °C). […]

FIH [2] = biological target: T1, FIH; experiment: Competition assay in a single reaction vessel, FIH-catalyzed hydroxylation (SPE-MS); type: biochemical
Method: (§2) Mean of three independent runs (n = 3; mean ± SD). […] Cosubstrates: a 20 μM 2OG; b 20 μM 2OG; c 20 μM 1; d 20 μM 12; e 20 μM 12 and 100 μM 2OG; f 100 μM 14. Source data are provided as a Source Data file.
(§3) Mean of three independent runs (n = 3; mean ± SD). […] Source data are provided as a Source Data file.
(§4) Peptide turnover was monitored by SPE-MS using the same instrument configuration (with the exception that the peptides were eluted from the SPE cartridge with 0.1%v/v aqueous formic acid in 80/20 v/v acetonitrile/water) as described above.
(§5) FIH and AspH-catalyzed peptide hydroxylations were analyzed simultaneously using SPE-MS as described in the
(§6) Methods section; competition experiments were performed in the same reaction vessel using equimolar 2OG
(§7) oxygenase and substrate concentrations. […]
(§8) Source data are provided as a Source Data file.
(§9) FIH and AspH-catalyzed peptide hydroxylations were analyzed simultaneously using SPE-
(§10) MS as described in the Methods section; competition experiments were performed in the same reaction vessel
(§11) using equimolar 2OG oxygenase and substrate concentrations. […]
(§12) 2OG, 100 μM 14. Source data are provided as a Source Data file.

AspH [3] = biological target: T2, AspH (Homo sapiens, UniProt Q12797); experiment: Competition assay in a single reaction vessel, AspH-catalyzed hydroxylation (SPE-MS); type: biochemical
T2 construct: the tetratricopeptide repeat domain (His6-AspH315-758), was produced and purified as previously reported; made in house
T2 sequence (Q12797 315-758): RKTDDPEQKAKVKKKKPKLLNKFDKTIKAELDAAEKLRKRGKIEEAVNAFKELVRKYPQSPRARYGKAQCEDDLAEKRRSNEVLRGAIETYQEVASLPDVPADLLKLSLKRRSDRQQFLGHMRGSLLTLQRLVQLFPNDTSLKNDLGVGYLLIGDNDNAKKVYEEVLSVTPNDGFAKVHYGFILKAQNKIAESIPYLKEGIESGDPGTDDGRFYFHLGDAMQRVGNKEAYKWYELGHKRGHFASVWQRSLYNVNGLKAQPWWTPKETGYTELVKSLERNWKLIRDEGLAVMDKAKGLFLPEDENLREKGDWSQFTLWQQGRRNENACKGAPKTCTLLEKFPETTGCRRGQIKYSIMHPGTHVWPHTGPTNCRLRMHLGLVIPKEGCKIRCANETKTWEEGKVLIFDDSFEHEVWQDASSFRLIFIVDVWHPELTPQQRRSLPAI
Method: as §2, §3, §4, §5, §6, §7, §8, §9, §10, §11, §12

AspH [4] = biological target: T2, AspH; conditions: 0.05 μM AspH, 1.0 μM hFX-CP101-119, 3.0 μM 2OG, ref 21 (supplementary ref 1); cited from earlier work
AspH [5] = biological target: T2, AspH; parameters: method as in PMID 34163896; conditions: hFX-CP101–119 substrate, 330 μM 2OG or 2OG derivative, t = 15 min; cited from earlier work
FIH [6] = biological target: T1, FIH; experiment: SPE-MS FIH turnover (cosubstrate) assay in the absence of 2OG; type: biochemical; conditions: 330 μM 2OG or 2OG derivative, no 2OG, t = 15 min
Method: The ability of 35 synthetic C3/C4-substituted 2OG derivatives, which were prepared via a reported procedure (Supplementary Fig. 1 and Supplementary Methods)[21], to sustain catalysis by purified recombinant FIH in the absence of 2OG was examined using an assay directly monitoring substrate depletion and product formation (i.e., a +16 Da mass shift) by solid-phase extraction (SPE) coupled to mass spectrometry (SPE-MS)[44],[45]. […] (i.e. CA1–20)[47], were used as FIH substrates to test for potential substrate-dependent differences in terms of cosubstrate analog selectivity.
as §1, with “Assay” for “MS-analyses were performed using a RapidFire RF 365 high-throughput sampling robot (Agilent) attached to an iFunnel Agilent 6550 accurate-mass quadrupole time-of-flight mass spectrometer operated in the positive ionization mode. Assay”, “The m/z + 2 (for CA1–20) or +3 (for HIF-1α788–822) charge states of the peptide (substrate) and the hydroxylated peptide (product) were used to extract ion chromatogram data, peak areas were integrated using RapidFire Integrator 4.3.0 (Agilent).” left out

[7] = Fig 4d, 0.5 mM 13 and 0.5 mM 2OG, after 4 min

T1 sequence (Q9NWT6 whole entry): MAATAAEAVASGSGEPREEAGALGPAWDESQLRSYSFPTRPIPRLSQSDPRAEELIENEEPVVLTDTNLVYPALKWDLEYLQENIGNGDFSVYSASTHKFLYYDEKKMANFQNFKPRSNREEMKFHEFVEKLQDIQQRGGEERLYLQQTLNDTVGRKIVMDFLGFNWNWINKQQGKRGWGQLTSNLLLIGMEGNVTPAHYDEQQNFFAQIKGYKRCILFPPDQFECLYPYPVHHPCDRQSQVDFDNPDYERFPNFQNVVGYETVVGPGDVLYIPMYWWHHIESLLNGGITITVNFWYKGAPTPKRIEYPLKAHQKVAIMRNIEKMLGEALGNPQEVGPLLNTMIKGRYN

Row | SMILES | FIH IC50, independent replicate (FIH [1]) | effect on FIH activity (FIH [2]; Fig 4, 13 from 0 to 2.0 mM, 0.5 mM 2OG) | FIH conversion (FIH [2]; [7]) | AspH-catalyzed substrate hydroxylation (AspH [3]; Fig 4f, fourfold excess of 13 over 0.5 mM 2OG, after 4 min) | AspH conversion (AspH [3]; [7]) | IC50 (AspH [4]) | AspH activity, %-substrate conversion (AspH [5]) | FIH activity, %-substrate conversion (FIH [6]; CA1–20 substrate) | FIH activity, %-substrate conversion (FIH [6]; HIF-1α788–822 substrate) | IC50 FIH (FIH [1]) | IC50 AspH (AspH [4]) | FIH cosubstrate activity (FIH [2]; Supplementary Fig 8b, 100 μM 28, 0 μM 2OG) | AspH conversion (AspH [3]; Supplementary Fig 8b, 100 μM 28, 0 μM 2OG, after 35 min)
1 | CC(C)(CC(=O)C(=O)O)C(=O)O [compound 13, 4,4-dimethyl-2OG] | not inhibiting | no effect on FIH activity | ~ 80% | < 20% | ~ 60% | ~300 nM | <1% | ~10% | < 1% | – | – | – | –
2 | O=C(O)C(=O)c1cccc(C(=O)O)c1 [compound 27] | – | – | – | – | – | – | <1% | ^c<1% ^d<1% | ^c<1% ^d<1% | inactive | inactive | – | –
3 | O=C(O)C(=O)c1ccc(C(=O)O)cc1 [compound 28, 4-Carboxyphenylglyoxylic acid] | not inhibiting | – | – | – | – | – | ~80% | ~10% | < 1% | – | inactive; also recorded: neither inhibits AspH nor FIH catalysis | no cosubstrate activity | ~ 40%
4 | O=C(O)C(=O)c1ccc(C(=O)O)cc1F [compound 29] | – | – | – | – | – | – | ~45% | ^c<1% ^d<1% | ^c<1% ^d<1% | inactive | inactive | – | –
5 | O=C(O)C(=O)c1ccc(C(=O)O)c(F)c1 [compound 30] | – | – | – | – | – | – | ~8% | ^c<1% ^d<1% | ^c<1% ^d<1% | inactive | inactive | – | –
6 | O=C(O)C(=O)c1ccc(C(=O)O)cc1Br [compound 31] | – | – | – | – | – | – | ~20% | ^c<1% ^d<1% | ^c<1% ^d<1% | inactive | inactive | – | –
7 | O=C(O)C(=O)c1ccc(C(=O)O)c(Br)c1 [compound 32] | – | – | – | – | – | – | ~8% | ^c<1% ^d<1% | ^c<1% ^d<1% | inactive | inactive | – | –
8 | Cc1cc(C(=O)O)ccc1C(=O)C(=O)O [compound 33] | – | – | – | – | – | – | ~5% | ^c<1% ^d<1% | ^c<1% ^d<1% | inactive | inactive | – | –
9 | O=C(O)C(=O)c1cscc1C(=O)O [compound 34] | – | – | – | – | – | – | <1% | ^c<1% ^d<1% | ^c<1% ^d<1% | inactive | inactive | – | –
